Test results as given in patent US12091410B2, “Heterocyclic compound” (Takeda Pharmaceutical Company Limited, priority 2018, dated 2024).

Target: T1, human orexin type 2 receptor (Homo sapiens, UniProt O43614)
T1 construct: expressed in transfected cells
T1 sequence (O43614 1-444): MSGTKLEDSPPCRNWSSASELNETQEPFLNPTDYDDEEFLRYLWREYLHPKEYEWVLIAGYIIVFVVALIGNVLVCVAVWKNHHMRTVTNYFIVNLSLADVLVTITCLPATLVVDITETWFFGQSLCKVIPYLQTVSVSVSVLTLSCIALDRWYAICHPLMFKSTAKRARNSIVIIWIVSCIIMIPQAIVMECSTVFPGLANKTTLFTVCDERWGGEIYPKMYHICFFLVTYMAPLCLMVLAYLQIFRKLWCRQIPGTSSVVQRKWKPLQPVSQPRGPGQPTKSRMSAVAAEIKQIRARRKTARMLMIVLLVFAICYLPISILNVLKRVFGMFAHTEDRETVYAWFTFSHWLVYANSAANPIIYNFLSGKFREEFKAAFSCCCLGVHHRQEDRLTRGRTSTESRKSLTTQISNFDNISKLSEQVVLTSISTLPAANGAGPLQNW
Test: Measurement of orexin type 2 receptor agonist activity (calcium fluorescence, Fluo-4 AM, CHO cells forcibly expressing human OX2 receptor)
Format: cell-based
Details: test compound 3 μM, DMSO = 0%, orexin A (human) 10 nM = 100%
From the text: To obtain a cell clone stably expressing human orexin type 2 receptor, human orexin type 2 receptor cDNA was inserted into pcDNA3.1(+) plasmid vector (Invitrogen), and a plasmid DNA for expression of human orexin type 2 receptor (pcDNA3.1(+)/hOX2R) was cloned. The plasmid DNA was introduced into CHO-dhfr cell by an electroporation method, and human orexin type 2 receptor expressing clone cells were obtained by limiting dilution method by using G418 drug resistance as a selection marker.
CHO cells forcibly expressing human OX2 receptor were seeded in each well of 384 well black transparent bottom plate (BD Falcon) at 7,500 cells/well, and cultured for one day in a 5% CO2 incubator at 37° C. After removal of the medium in the cell plate, assay buffer A containing a calcium indicator (HBSS (Thermo Fisher Scientific), 20 mM HEPES (Thermo Fisher Scientific), 0.1% BSA (Sigma-Aldrich), 2.5 μg/mL Fluo-4 AM (DOJINDO Chemical), 0.08% Pluronic F127 (DOJINDO Chemical), 1.25 mM probenecid (DOJINDO Chemical)) was added at 30 μL/well. The plate was stood for 30 min in a 5% CO2 incubator at 37° C., and further stood at room temperature for 30 min. A test compound prepared by diluting with assay buffer B (HBSS, 20 mM HEPES, 0.1% BSA) was added at 10 μL/well, and the fluorescence value was measured by FDSSpCELL (Hamamatsu Photonics K. K.) every one sec for 1 min, and thereafter every two sec for 1 min 40 sec. The activity (%) of the test compound was calculated assuming that variation in the fluorescence value when DMSO was added instead of the test compound was 0%, and variation in the fluorescence value when orexin A (human) (PEPTIDE INSTITUTE, INC.) was added at the final concentration of 10 nM was 100%.

Structure (SMILES) | OX2R agonist activity (3 μM, %)
CCc1cc2n(n1)[C@@H](COC1CCN(c3ncccn3)CC1)[C@@H](NS(=O)(=O)CC)CC2 (racemic) [Example 45, rac-N-[(6S,7R)-2-ethyl-7-({[1-(pyrimidin-2-yl)piperidin-4-yl]oxy}methyl)-4,5,6,7-tetrahydropyrazolo[1,5-a]pyridin-6-yl]ethanesulfonamide] | 101%
Cc1cn2c(n1)[C@@H](Cc1cccc(-c3cccc(F)c3)c1)[C@@H](NS(C)(=O)=O)CC2 (relative stereo) [Example 57, rel-N-{(7S,8S)-8-[(3′-fluoro[1,1′-biphenyl]-3-yl)methyl]-2-methyl-5,6,7,8-tetrahydroimidazo[1,2-a]pyridin-7-yl}methanesulfonamide] | 94%
CCc1cc2n(n1)[C@@H](Cc1cccc(-c3ccccc3)c1)[C@@H](NS(C)(=O)=O)CC2 (racemic) [Example 8, rac-N-{(6S,7S)-7-[([1,1′-biphenyl]-3-yl)methyl]-2-ethyl-4,5,6,7-tetrahydropyrazolo[1,5-a]pyridin-6-yl}methanesulfonamide] | 92%
CCc1cc2n(n1)[C@@H](COC1CCN(c3ncc(F)c(C)n3)CC1)[C@@H](NS(C)(=O)=O)CC2 (racemic) [Example 41, rac-N-[(6S,7R)-2-ethyl-7-({[1-(5-fluoro-4-methylpyrimidin-2-yl)piperidin-4-yl]oxy}methyl)-4,5,6,7-tetrahydropyrazolo[1,5-a]pyridin-6-yl]methanesulfonamide] | 80%
CC(O)c1nn2c(c1Cl)CCC(NS(C)(=O)=O)C2COC1CCN(c2ncccn2)CC1 (racemic) [Example 50, N-[(6SR,7RS)-3-chloro-2-(1-hydroxyethyl)-7-({[1-(pyrimidin-2-yl)piperidin-4-yl]oxy}methyl)-4,5,6,7-tetrahydropyrazolo[1,5-a]pyridin-6-yl]methanesulfonamide] | 92%
Cc1nnn2c1CC[C@H](NS(C)(=O)=O)[C@@H]2COC1CCN(c2ncc(F)cn2)CC1 (racemic) [Example 10, rac-N-[(6S,7R)-7-({[1-(5-fluoropyrimidin-2-yl)piperidin-4-yl]oxy}methyl)-3-methyl-4,5,6,7-tetrahydro[1,2,3]triazolo[1,5-a]pyridin-6-yl]methanesulfonamide] | 69%
CC(C)c1cc2n(n1)[C@@H](COC1CCN(c3ncccn3)CC1)[C@@H](NS(C)(=O)=O)CC2 (relative stereo) [Example 56, rel-N-[(6S,7R)-2-(propan-2-yl)-7-({[1-(pyrimidin-2-yl)piperidin-4-yl]oxy}methyl)-4,5,6,7-tetrahydropyrazolo[1,5-a]pyridin-6-yl]methanesulfonamide] | 100%
CC(C)c1cc2n(n1)[C@@H](COC1CCN(c3ncc(F)cn3)CC1)[C@@H](NS(C)(=O)=O)CC2 (relative stereo) [Example 24, rel-N-[(6S,7R)-7-({[1-(5-fluoropyrimidin-2-yl)piperidin-4-yl]oxy}methyl)-2-(propan-2-yl)-4,5,6,7-tetrahydropyrazolo[1,5-a]pyridin-6-yl]methanesulfonamide] | 111%
CC(O)c1cc2n(n1)C(Cc1cccc(-c3ccccc3)c1)C(NS(C)(=O)=O)CC2 (racemic) [Example 36, N-[(6SR,7SR)-7-[([1,1′-biphenyl]-3-yl)methyl]-2-(1-hydroxyethyl)-4,5,6,7-tetrahydropyrazolo[1,5-a]pyridin-6-yl]methanesulfonamide] | 105%
Cc1nc2n(n1)C(CO[C@H]1CC[C@@H](c3ccccc3)CC1)C(NS(C)(=O)=O)CC2 (mixture of isomers) [Example 5, rac-N-[(5R,6S)-2-methyl-5-({[(1s,4S)-4-phenylcyclohexyl]oxy}methyl)-5,6,7,8-tetrahydro[1,2,4]triazolo[1,5-a]pyridin-6-yl]methanesulfonamide] | 99%
CS(=O)(=O)NC1CCc2ncnn2C1CO[C@H]1CC[C@@H](c2ccccc2)CC1 (mixture of isomers) [Example 6, rac-N-[(5R,6S)-5-({[(1s,4S)-4-phenylcyclohexyl]oxy}methyl)-5,6,7,8-tetrahydro[1,2,4]triazolo[1,5-a]pyridin-6-yl]methanesulfonamide] | 85%
Cc1nn2c(c1Cl)CC[C@H](NS(C)(=O)=O)[C@@H]2COC1CCN(c2ncc(F)cn2)CC1 (racemic) [Example 15, rac-N-[(6S,7R)-3-chloro-7-({[1-(5-fluoropyrimidin-2-yl)piperidin-4-yl]oxy}methyl)-2-methyl-4,5,6,7-tetrahydropyrazolo[1,5-a]pyridin-6-yl]methanesulfonamide] | 91%
CCc1cc2n(n1)C(CO[C@H]1CC[C@@H](c3ccccc3)CC1)C(NS(C)(=O)=O)CC2 (mixture of isomers) [Example 2, rac-N-[(6S,7R)-2-ethyl-7-({[(1s,4S)-4-phenylcyclohexyl]oxy}methyl)-4,5,6,7-tetrahydropyrazolo[1,5-a]pyridin-6-yl]methanesulfonamide] | 107%
CS(=O)(=O)N[C@H]1CCc2cccnc2[C@H]1Cc1cccc(-c2ccccc2)c1 (racemic) [Example 22, rac-N-{(7S,8S)-8-[([1,1′-biphenyl]-3-yl)methyl]-5,6,7,8-tetrahydroquinolin-7-yl}methanesulfonamide] | 63%
CC(C)c1cc2n(n1)[C@@H](COC1CCN(c3ccccc3F)CC1)[C@@H](NS(C)(=O)=O)CC2 (racemic) [Example 29, rac-N-[(6S,7R)-7-({[1-(2-fluorophenyl)piperidin-4-yl]oxy}methyl)-2-(propan-2-yl)-4,5,6,7-tetrahydropyrazolo[1,5-a]pyridin-6-yl]methanesulfonamide] | 80%
